Source: patent US9505735B2, “Compounds for treating infectious diseases” (Whitehead Institute for Biomedical Research, priority 2012, dated 2016)
Values joined by “and” are separate entries in the source; they are usually repeats but may differ in a detail not shown here. Equal values may be shown once. Read-outs that look alike come from different tables or passages of the source.

Assays:
[1] = test system: Wildtype S. cerevisiae BY4741; assay: Antifungal susceptibility testing, wildtype yeast; assay type: cell-based; details: Saccharomyces cerevisiae, read-out: EC50 Avg
Description: Archives of all strains were maintained in 25% glycerol at −80° C. Standard S. cerevisiae lab strains W303, BY4741, BY4742 and BY4743 were used for experiments. The C. albicans wild type strain in FIG. 1 was CaI4, a standard laboratory strain (Fonzi, et al. (1993) Genetics 134, 717-728). The C. albicans fluconazole-resistant strains CaCi-2, CaCi-8 and CaCi17 were generously provided by Ted White and originally collected by Spencer Redding and colleagues (White, (1997) Antimicrob Agents Chemother 41, 1488-1494; White, (1997) Antimicrob Agents Chemother 41, 1482-1487; White, et al. (1997) Oral Dis 3 Suppl 1, S102-109). The sequenced C. albicans wild type strain, Sc5314 (Gillum, et al. (1984) Mol Gen Genet 198, 179-182) used in P-glucan experiments was a gift from John Perfect's lab. CaAmphR, an amphotericin B-resistant strain is from ATCC (#20095). Caspofungin-resistant strain Cfr1 was derived by plating Sc5314 on caspofungin plates and isolating resistant colonies. A. terreus was purchased from ATCC (MYA-3633). The C. glabrata strain CgL5c was obtained from John Bennett's lab. The YKO heterozygous diploid strain collection is from Open Biosystems and was generated in BY4743. Haploid deletion strains were from the Yeast Knock-out Deletion Collection and purchased from Invitrogen. The over-expression library was made by transforming BY4741 with the Harvard Institute of Proteomics Flexgene library.
(§1) Sensitivity to gepinacin was determined in 96-well, flat bottom microtiter plates using a modification of the NCCLS broth microdilution protocol CLS M27-A3 and RPMI as culture medium. Fungi were inoculated at ˜10^3 cells per ml and incubated for 48 hours at 37° C. after which plates were sealed, shaken and the optical density read at 600 nm (OD600) on a Tecan Safire 2 plate reader. All samples were run in duplicate or triplicate and assays were repeated at least once. Results are expressed as fraction of growth in the absence of compound and the mean and standard deviation are plotted. For the mold A. terreus, inoculum was 10^4 cells per ml and plates were incubated at 35° C. for 48 hours in the dark. Plates were then visually scored as specified by CLSI document M38-A2 to determine the MIC50 and MIC80.
(§2) The following gepinacin analogs were tested for activity against Gwt1. Gepinacin, M3, CM2, CM4, CM6, CM7, CM8, and 857621-56-8 were available commercially. The compounds were tested using the “Antifungal Susceptibility Testing” protocol described above. Fungi tested are described in the “Fungal Strains” section above.

Gwt1 = molecular target: T1, Gwt1 (Saccharomyces cerevisiae, UniProt P47026); assay: Antifungal susceptibility testing, screening strains with plasmid-borne GWT1 (low or high copy); assay type: cell-based, S. cerevisiae
T1 construct: Wildtype S. cerevisiae BY4741; endogenous in cells; host or cells: S. cerevisiae BY4741 (wild type)
T1 sequence (P47026 1-490): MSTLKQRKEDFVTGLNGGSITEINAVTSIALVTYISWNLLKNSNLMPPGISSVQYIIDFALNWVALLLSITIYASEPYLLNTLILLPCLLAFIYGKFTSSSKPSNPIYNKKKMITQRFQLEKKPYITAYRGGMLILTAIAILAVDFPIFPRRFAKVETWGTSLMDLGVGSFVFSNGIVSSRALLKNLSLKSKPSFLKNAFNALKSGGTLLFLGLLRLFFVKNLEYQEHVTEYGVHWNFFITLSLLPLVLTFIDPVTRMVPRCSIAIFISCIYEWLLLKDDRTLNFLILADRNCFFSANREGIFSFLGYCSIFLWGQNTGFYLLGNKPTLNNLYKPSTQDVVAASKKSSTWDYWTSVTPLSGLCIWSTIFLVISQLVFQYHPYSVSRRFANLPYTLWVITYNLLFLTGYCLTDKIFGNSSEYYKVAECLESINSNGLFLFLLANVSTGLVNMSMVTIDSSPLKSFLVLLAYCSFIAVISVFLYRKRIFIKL
Description: as §1
Because GWT1 deletion is lethal in S. cerevisiae strain BY4741, a haploid shuttle strain was constructed in which the genomic copy of GWT1 was deleted and replaced by GWT1 on a plasmid that also encoded the URA3 gene and a G418-resistance gene. To construct this shuttle strain a gwt1Δ/GWT1 heterozygous deletion mutant was transformed with pAGGPD416-GWT1, sporulated and dissected. A colony was selected that grew on both SD-URA and G418-containing plates. PCR with the deletion specific primers (http://wwwsequence.stanford.edu/group/yeast_deletion_project/deletions3.html) was performed to confirm the GWT1 deletion. To change the source of GWT, this shuttle strain was transformed with plasmids containing GWT1 (as a control) or PIG-W and the LEU2 auxotrophy gene followed by selection for growth on SD-LEU plates. Plasmids were constructed by conventional Gateway technology using a GWT1 encoding entry vector and either pAG415GPDccdB or pAG425GPDccdB as the destination vectors. Positive colonies were selected and grown on 5-fluoroorotic acid (5-FOA)-containing plates to promote loss of the pAGGPD416-GWT1 plasmid. The colonies from this plate were then tested for return of uridine auxotrophy to confirm pAGGPD416-GWT1 loss. The PIG-W expression vector was constructed by recombination in yeast as follows. The pAG415GPDccdB vector was cut with Xho1 and Xba1 and the larger piece was gel and column purified. The coding sequence of PIG-W was PCR amplified from the entry clone so that it would have ends facilitating recombination with the cut vector. The shuttle strain was then transformed with these two DNA fragments and plated on SD-LEU plates to select for recombinants. PIG-W plasmid was isolated from the final strain and sequence verified.
as §2
An S. cerevesiae strain was generated in which the endogenous Gwt1 gene was deleted. Plasmids (either high copy or low copy) with either S. cerevesiae or human Gwt1 were introduced to produce strains bearing such plasmids expressing either S. cerevesiae or human Gwt1 from a constitutive promoter. Yeast strains were cultured in liquid media in the presence of indicated compounds. Shown in FIGS. 22A-D show the effect of the indicated compounds on growth (assessed by OD600) and viability (assessed using Bactiter Glo) of the yeast strain with high copy or low copy plasmid containing S. cerevesiae Gwt1. The compounds had no effect on strains with the human Gwt1, thus showing the compounds' sensitivity for the fungal (yeast) Gwt1 gene.

PIG-W = molecular target: T2, PIG-W (Homo sapiens, UniProt Q7Z7B1); assay: Growth of S. cerevisiae strain whose GWT1 is replaced by the human gene PIG-W; assay type: cell-based
T2 construct: expressed in transfected cells; host or cells: S. cerevisiae BY4741-derived gwt1 deletion shuttle strain carrying a pAG415GPD-based PIG-W plasmid
T2 sequence (Q7Z7B1 1-504): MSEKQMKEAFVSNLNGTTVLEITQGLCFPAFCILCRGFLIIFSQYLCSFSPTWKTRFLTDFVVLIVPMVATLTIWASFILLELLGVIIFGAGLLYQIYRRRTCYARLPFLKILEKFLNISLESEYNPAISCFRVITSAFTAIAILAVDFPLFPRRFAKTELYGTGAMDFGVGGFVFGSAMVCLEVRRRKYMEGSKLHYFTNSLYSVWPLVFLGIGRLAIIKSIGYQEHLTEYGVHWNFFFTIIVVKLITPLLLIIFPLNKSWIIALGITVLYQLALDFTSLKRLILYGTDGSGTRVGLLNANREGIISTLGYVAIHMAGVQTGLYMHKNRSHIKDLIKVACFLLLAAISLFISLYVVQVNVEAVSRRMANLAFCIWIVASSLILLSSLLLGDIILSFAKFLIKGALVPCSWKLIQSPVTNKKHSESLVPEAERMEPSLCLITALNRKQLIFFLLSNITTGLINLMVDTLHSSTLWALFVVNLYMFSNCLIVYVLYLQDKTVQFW
Description: as §1
Because GWT1 deletion is lethal in S. cerevisiae strain BY4741, a haploid shuttle strain was constructed in which the genomic copy of GWT1 was deleted and replaced by GWT1 on a plasmid that also encoded the URA3 gene and a G418-resistance gene. […]
An S. cerevesiae strain was generated in which the endogenous Gwt1 gene was deleted. […] Shown in FIGS. 22A-D show the effect of the indicated compounds on growth (assessed by OD600) and viability (assessed using Bactiter Glo) of the yeast strain with high copy or low copy plasmid containing S. cerevesiae Gwt1. […]

[2] = test system: unfolded protein response; assay: Unfolded protein response GFP reporter (UPRE-GFP), flow cytometry; assay type: cell-based, S. cerevisiae; details: 5 hours
Description: Induction of the unfolded protein response in cells carrying a GFP reporter construct was monitored by flow cytometry after exposure to serial dilutions of the indicated compounds for 5 hrs.
The plasmid pRS304-4XUPRE-GFP was linearized and integrated into the TRP1 locus of S. cerevisiae (W303) to construct a reporter strain as previously described (Cox, et al. (1993) Cell 73, 1197-1206; Pollard, et al. (1998) Mol Cell 1, 171-182). Reporter cells were grown to log phase and exposed to compound at 23° C. for 5 hours before analysis. GFP reporter induction was monitored on a Guava EasyCyte Plus cytometer. The average mean channel fluorescence of duplicate samples was determined, and the experiment was performed twice with similar results.

[3] = test system: S. cerevisiae strains deleted for IRE1 or HAC1; assay: Antifungal susceptibility testing of UPR-deficient strains; assay type: cell-based; details: 48 hour
Description: (§3) (A) Immunoblots of lysates prepared from S. cerevisiae treated with gepinacin showing GPI-anchor-selective impairment of protein maturation. The unprocessed (u), precursor (p), and mature (m) forms of the reporter proteins are indicated. The identity of the tagged reporter proteins (top of panel) and the antibodies used for their detection (bottom of panel) are also indicated. Treatment conditions are DMSO (0.05%), gepinacin (GPN, 10 μM) or tunicamycin (Tun, 10 μM). The same lysate was used for both blots. […] GFP expression was monitored by flow cytometry. (C) Anti-fungal susceptibility testing of strains deleted for IRE1 (activator of the UPR) or HAC1 (effector of the UPR) showing their increased sensitivity to gepinacin.
Anti-fungal susceptibility testing of strains bearing deletion of IRE1 (activator of the UPR) or HAC1 (effector of the UPR) using either […] (A) or fluconazole (B). Growth was measured by OD600 after 48 hour exposure to serial dilutions of the compounds as indicated. Results are expressed as a fraction of the OD600 measured in the absence of gepinacin. The mean and standard deviation of triplicate determinations are shown.

Gas1 and CPY maturation = assay: Protein trafficking analysis (immunoblot of reporter proteins); assay type: cell-based, S. cerevisiae; details: 10 μM, 1 hour
Description: as §3
HA-tagged GAS1 was expressed in strain BY4741 CPY-GFP (Yeast GFP collection (Huh, et al. (2003) Nature 425, 686-691) under control of its own promoter using plasmid pCM-HA-GAS1. This construct was created as previously reported except in a gateway plasmid backbone (Fujita, et al. (2006) Mol Biol Cell 17, 834-850). To assess effects on trafficking, strains were incubated for 1 hour at 30° C. with test compounds. Total cellular protein (5 μg) was separated by electrophoresis (Invitrogen 8% gels) and transferred to nitrocellulose membranes. Blots were hybridized with antibodies against HA (Covance), GFP (Roche), or CPY (Invitrogen). Sizes for the various post-translationally modified products of Gas1HA2 and CPY have been previously reported (Fujita, et al. (2006) Mol Biol Cell 17, 834-850). CPY-GFP was used to facilitate discrimination of CPY processing steps because GFP is cleaved from CPY in the yeast vacuole. The experiment, however, was also performed with untagged CPY with the same results.

[4] = EC50 High Copy GWT1, Screening strains, high copy GWT1 plasmid
[5] = EC50 Low Copy GWT1, Screening strains, low copy GWT1 plasmid

Compound | activation of the unfolded protein response (GFP reporter) [2] | EC50 (Gwt1; [4]) | EC50 (Gwt1; [5]) | also measured
CC(C)COc1cccc(OCC(=O)Nc2ccc(N(C)C)cc2)c1 [CM3] | – | – | – | EC50 [1]: 18.2 µM
COc1ccc(NC(=O)C(C)Oc2cccc(OCc3ccccc3)c2)cc1 (stereo not drawn) [MAZ1844] | – | – | – | activity against Gwt1 (Gwt1): not Gwt1; activity against PigW / in the PIG-W expressing strain (PIG-W): active
C[C@@H]1[C@H](O)[C@@H](C)/C=C/C=C/C=C/C=C/C=C/C=C/C=C/[C@H](O[C@@H]2O[C@H](C)[C@@H](O)[C@H](N)[C@@H]2O)C[C@@H]2O[C@](O)(C[C@@H](O)C[C@@H](O)[C@H](O)CC[C@@H](O)C[C@@H](O)CC(=O)O[C@H]1C)C[C@H](O)[C@H]2C(=O)O [amphotericin B] | not seen | – | – | –
COc1ccc(NC(=O)COc2cccc(OCC(C)C)c2)cc1 [LW16] | – | 1.17 µM and 1.89 µM and 8.6 µM | – | EC50 ([1]; Wildtype S. cerevisiae BY4741): 2.9 µM
OC(Cn1cncn1)(Cn1cncn1)c1ccc(F)cc1F [fluconazole, reference compound] | not seen | – | – | change of toxicity by deletion of HAC1 or IRE1 [3]: completely unaffected
COc1ccc(NC(=O)COc2cccc(OCCC(C)C)c2)cc1 [CM7] | – | 6.2 µM | 1.31 µM | EC50 ([1]; Wildtype S. cerevisiae BY4741): 2.65 µM
CC[C@H](C)C[C@H](C)CCCCCCCCC(=O)N[C@H]1C[C@@H](O)[C@@H](NCCN)NC(=O)[C@@H]2[C@@H](O)CCN2C(=O)[C@H]([C@H](O)CCN)NC(=O)[C@H]([C@H](O)[C@@H](O)c2ccc(O)cc2)NC(=O)[C@@H]2C[C@@H](O)CN2C(=O)[C@H]([C@@H](C)O)NC1=O [caspofungin] | not seen | – | – | –
COc1ccc(NC(=O)COc2cccc(Oc3ccccn3)c2)cc1 [MAZ1859] | – | 7.2 µM | 4.9 µM | –
COc1ccc(NC(=O)C(C)Oc2cccc(OCC(C)C)c2)cc1 (stereo not drawn) [MAZ1855] | – | 93.1 µM | 12.8 µM | –
CC(C)COc1cccc(OCC(=O)Nc2ccc(F)cc2)c1 [CM2] | – | 3.07 µM | 1.16 µM | EC50 ([1]; Wildtype S. cerevisiae BY4741): 7.05 µM
COc1ccc(NC(=O)COc2cccc(OCc3ccccc3)c2)cc1 [MAZ1857] | – | 268 µM | 177 µM | –
tunicamycin [reference compound] | Strong induction | – | – | CPY (not GPI-anchored) processing (Gas1 and CPY maturation): alters the processing of both proteins; Gas1 (GPI-anchored) maturation: mature versus precursor form (Gas1 and CPY maturation): alters the processing of both proteins
